PubChem BioAssay AID180 (DTP/NCI, 2004)
Several values for one entry are separate records, joined by “and”; a condition that tells them apart may be missing. Equal entries are not always repeated.

Test system: BDF1 mice, Adenocarcinoma 755 s.c., tumor weight T/C
Experiment: NCI In Vivo Anticancer Drug Screen. Data for tumor model Adenocarcinoma 755 (subcutaneous) in B6D2F1 (BDF1) mice
Conditions: endpoint: mean tumor weight, schedule: Q01DX011 (ip), higher = larger tumour
In short: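 Tumor-bearing mice receive test compound while controls get vehicle alone. Antitumor effect is scored from survival or tumor dimensions as a T/C quotient.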

[1] = dose: 6.25 mg/kg/injection, vehicle: methylcellulose (MC)
[2] = dose: 12.5 mg/kg/injection, vehicle: methylcellulose (MC)
[3] = dose: 25.0 mg/kg/injection, vehicle: methylcellulose (MC)
[4] = dose: 30.0 mg/kg/injection, vehicle: carboxymethylcellulose (CMC)
[5] = dose: 60.0 mg/kg/injection, vehicle: carboxymethylcellulose (CMC)
[6] = dose: 120.0 mg/kg/injection, vehicle: carboxymethylcellulose (CMC)
[7] = dose: 240.0 mg/kg/injection, vehicle: carboxymethylcellulose (CMC)
[8] = dose: 25.0 mg/kg/injection, vehicle: saline
[9] = dose: 125.0 mg/kg/injection, vehicle: saline
[10] = dose: 250.0 mg/kg/injection, vehicle: saline

`C=C(C)[C@H]1Cc2c(ccc3c2O[C@@H]2COc4cc(OC)c(OC)cc4[C@@H]2C3=O)O1` was tested, and the T/C (dose: 0.5 mg/kg/injection, vehicle: water) was 93 % of control, the T/C (dose: 0.75 mg/kg/injection, vehicle: water) was 96 % of control and the T/C (dose: 1.0 mg/kg/injection, vehicle: water) was 74 % of control. The T/C (dose: 2.0 mg/kg/injection, vehicle: water) was 88 % of control.

For `CC(C)Cn1cnc2c(Sc3c([N+](=O)[O-])ncn3C)nc(N)nc21`, the T/C (dose: 0.2 mg/kg/injection, vehicle: methylcellulose (MC)) was 71 % of control, the T/C (dose: 0.39 mg/kg/injection, vehicle: methylcellulose (MC)) was 70 % of control and the T/C (dose: 0.78 mg/kg/injection, vehicle: methylcellulose (MC)) was 68 % of control. For the same compound, the T/C (dose: 3.12 mg/kg/injection, vehicle: methylcellulose (MC)) was 48 % of control, the T/C [1] was 22 % of control and the T/C [2] was 7 % of control. For the same compound, the T/C [3] was 2 % of control.

`CC(=O)OCC1OC(n2cnc3c(=O)[nH]cnc32)C(OC(C)=O)C1OC(C)=O` (stereo not drawn) was tested, and the T/C [4] was 55 % of control, the T/C [5] was 65 % of control and the T/C [6] was 80 % of control. The T/C [7] was 67 % of control, the T/C (dose: 400.0 mg/kg/injection, vehicle: carboxymethylcellulose (CMC)) was 110 % of control and the T/C (dose: 600.0 mg/kg/injection, vehicle: carboxymethylcellulose (CMC)) was 117 % of control.

With `O=c1[nH]cc(F)c(=O)[nH]1` the T/C (dose: 3.38 mg/kg/injection, vehicle: carboxymethylcellulose (CMC)) was 106 % of control, the T/C (dose: 3.87 mg/kg/injection, vehicle: carboxymethylcellulose (CMC)) was 61 % of control and the T/C (dose: 4.13 mg/kg/injection, vehicle: carboxymethylcellulose (CMC)) was 48 % of control and 71 % of control. The T/C [1] was 91 % of control, the T/C (dose: 6.75 mg/kg/injection, vehicle: carboxymethylcellulose (CMC)) was 75 % of control and the T/C (dose: 7.75 mg/kg/injection, vehicle: carboxymethylcellulose (CMC)) was 103 % of control and 85 % of control. For the same compound, the T/C (dose: 8.27 mg/kg/injection, vehicle: carboxymethylcellulose (CMC)) was 151 % of control and 159 % of control, the T/C (dose: 10.8 mg/kg/injection, vehicle: carboxymethylcellulose (CMC)) was 156 % of control and the T/C [2] was 44 % of control. The T/C (dose: 13.24 mg/kg/injection, vehicle: carboxymethylcellulose (CMC)) was 76 % of control, the T/C (dose: 16.55 mg/kg/injection, vehicle: carboxymethylcellulose (CMC)) was 100 % of control and 224 % of control and 75 % of control and the T/C (dose: 18.0 mg/kg/injection, vehicle: carboxymethylcellulose (CMC)) was 108 % of control. For the same compound, the T/C (dose: 20.0 mg/kg/injection, vehicle: saline) was 15 % of control, the T/C (dose: 22.06 mg/kg/injection, vehicle: carboxymethylcellulose (CMC)) was 59 % of control and the T/C [3] was 13 % of control. For the same compound, the T/C [8] was 34 % of control, the T/C (dose: 27.0 mg/kg/injection, vehicle: carboxymethylcellulose (CMC)) was 18 % of control and 27 % of control and the T/C (dose: 30.0 mg/kg/injection, vehicle: saline) was 11 % of control. The T/C (dose: 33.1 mg/kg/injection, vehicle: carboxymethylcellulose (CMC)) was 27 % of control.

For `O=CC1CO1` (stereo not drawn), the T/C (dose: 29.0 mg/kg/injection, vehicle: saline) was 71 % of control, the T/C (dose: 44.0 mg/kg/injection, vehicle: saline) was 41 % of control and the T/C (dose: 66.0 mg/kg/injection, vehicle: saline) was 66 % of control.

In the case of `NC(N)=NC(CC(=O)O)c1ccccc1` (stereo not drawn), the T/C (dose: 15.0 mg/kg/injection, vehicle: saline) is reported as 87 % of control, the T/C (dose: 31.0 mg/kg/injection, vehicle: saline) is reported as 99 % of control and the T/C (dose: 62.0 mg/kg/injection, vehicle: saline) is reported as 87 % of control. The T/C [9] was 107 % of control and the T/C [10] was 91 % of control.

With `O=C(NC(CO)C(=O)O)C(Cl)Cl` (stereo not drawn) the T/C (dose: 1000.0 mg/kg/injection, vehicle: methylcellulose (MC)) was 93 % of control.

In the case of `CCC(C)Cn1cnc2c(SCC(=O)O)nc(N)nc21` (stereo not drawn), the T/C [3] is reported as 78 % of control, the T/C (dose: 80.0 mg/kg/injection, vehicle: methylcellulose (MC)) is reported as 43 % of control and the T/C (dose: 250.0 mg/kg/injection, vehicle: methylcellulose (MC)) is reported as 45 % of control.

With `CC(=O)OCC1OC(n2c(Br)nc3c(N)ncnc32)C(OC(C)=O)C1OC(C)=O` (stereo not drawn) the T/C [4] was 88 % of control, the T/C [5] was 88 % of control and the T/C [6] was 104 % of control. The T/C [7] was 113 % of control.

`Nc1nc(N)c2cnnn2n1` was tested, and the T/C [8] was 83 % of control and the T/C (dose: 75.0 mg/kg/injection, vehicle: saline) was 116 % of control.

In the case of `COc1cc(-c2ccc(N=Nc3c(O)ccc4ccccc34)c(OC)c2)ccc1N=Nc1ccc2c(S(=O)(=O)O)cc(S(=O)(=O)O)c(N)c2c1O`, the T/C (dose: 62.0 mg/kg/injection, vehicle: carboxymethylcellulose (CMC)) is reported as 63 % of control and 75 % of control, the T/C (dose: 112.0 mg/kg/injection, vehicle: carboxymethylcellulose (CMC)) is reported as 60 % of control and 79 % of control and the T/C (dose: 225.0 mg/kg/injection, vehicle: carboxymethylcellulose (CMC)) is reported as 39 % of control and 64 % of control. For the same compound, the T/C (dose: 450.0 mg/kg/injection, vehicle: carboxymethylcellulose (CMC)) was 29 % of control.

In the case of `NC(CO)(CO)CO`, the T/C [9] is reported as 72 % of control, the T/C [10] is reported as 69 % of control and the T/C (dose: 500.0 mg/kg/injection, vehicle: saline) is reported as 75 % of control. The T/C (dose: 1000.0 mg/kg/injection, vehicle: saline) was 84 % of control.

With `C=CCC1(CC)C(=O)NC(=O)NC1=O` the T/C (dose: 10.0 mg/kg/injection, vehicle: carboxymethylcellulose (CMC)) was 83 % of control, the T/C (dose: 22.0 mg/kg/injection, vehicle: methylcellulose (MC)) was 53 % of control and the T/C [3] was 112 % of control. The T/C (dose: 42.0 mg/kg/injection, vehicle: methylcellulose (MC)) was 59 % of control, the T/C (dose: 50.0 mg/kg/injection, vehicle: methylcellulose (MC)) was 94 % of control and 79 % of control and the T/C (dose: 85.0 mg/kg/injection, vehicle: methylcellulose (MC)) was 23 % of control. The T/C (dose: 100.0 mg/kg/injection, vehicle: methylcellulose (MC)) was 61 % of control and 66 % of control, the T/C (dose: 170.0 mg/kg/injection, vehicle: carboxymethylcellulose (CMC)) was 49 % of control and the T/C (dose: 170.0 mg/kg/injection, vehicle: methylcellulose (MC)) was 4 % of control. For the same compound, the T/C (dose: 200.0 mg/kg/injection, vehicle: carboxymethylcellulose (CMC)) was 83 % of control and the T/C (dose: 200.0 mg/kg/injection, vehicle: methylcellulose (MC)) was 27 % of control and 42 % of control.

`Nc1nc(SC2=NCCN2)c2[nH]cnc2n1` was tested, and the T/C (dose: 0.75 mg/kg/injection, vehicle: carboxymethylcellulose (CMC)) was 22 % of control, the T/C (dose: 1.5 mg/kg/injection, vehicle: carboxymethylcellulose (CMC)) was 6 % of control and the T/C (dose: 3.0 mg/kg/injection, vehicle: carboxymethylcellulose (CMC)) was 6 % of control. For the same compound, the T/C (dose: 90.0 micrograms/kg/injection, vehicle: carboxymethylcellulose (CMC)) was 57 % of control, the T/C (dose: 187.0 micrograms/kg/injection, vehicle: carboxymethylcellulose (CMC)) was 88 % of control and the T/C (dose: 370.0 micrograms/kg/injection, vehicle: carboxymethylcellulose (CMC)) was 79 % of control. The T/C (dose: 750.0 micrograms/kg/injection, vehicle: carboxymethylcellulose (CMC)) was 33 % of control.

In the case of `Nc1ccccc1N`, the T/C (dose: 31.25 mg/kg/injection, vehicle: methylcellulose (MC)) is reported as 80 % of control, the T/C (dose: 62.5 mg/kg/injection, vehicle: methylcellulose (MC)) is reported as 40 % of control and the T/C (dose: 125.0 mg/kg/injection, vehicle: methylcellulose (MC)) is reported as 55 % of control.
